We go through 3 compounds from patent publication US20130283404A1, “EPIGENETICS IN AUTOIMMUNITY” (The Regents of the University of Michigan, priority 2012, published 2013).

In one assay the target is T1, PKCθ (Homo sapiens, UniProt Q04759).
T1 construct: Following stimulation, whole cell lysates were obtained; endogenous in cells; host or cells: primary CD4+ T cells from healthy donors
As to the kind of experiment: PKCθ activation loop phosphorylation by immunoblot in PMA-stimulated CD4+ T cells. In kind it is cell-based. The note with it: CD4+ T cells from healthy subjects, increasing ONOO− then PMA.

A further assay concerns PKCα. Description: PKCα activation loop phosphorylation by immunoblot in PMA-stimulated CD4+ T cells. The note with it: CD4+ T cells from healthy subjects, increasing ONOO− then PMA. In kind it is cell-based, human.
The subject of a further assay is 3-nitrotyrosine proteins. Description: 3NO2-tyrosine protein derivative formation by immunoblot in CD4+ T cells. Type of assay: cell-based, human. The note with it: CD4+ T cells from a healthy donor, increasing ONOO− then PMA. Here is the method:
(§1) CD4+ T cells were suspended in RPMI 1640 supplemented with 10% fetal calf serum, 2 mM glutamine and penicillin/streptomycin then left unstimulated or stimulated with 50 ng/ml PMA for 15 min at 37° C. Treatment with peroxynitrite was performed at the concentrations and time specified in each experiment and before PMA stimulation. Following stimulation, whole cell lysates were obtained and protein content quantified using the BCA Protein Assay (Pierce, Rockford, Ill.).
(§2) Whole cell protein was fractionated by SDS-PAGE, transferred to nitrocellulose membranes (Schleicher and Schuell, Keene, N.H.) then stained with Ponceau S (Sigma) to verify equal protein loading between lanes. After incubation with the kinase specific antibody then the secondary antibody, protein bands were visualized by chemiluminescence (Amersham, Piscataway, N.J.). The bands on X-ray films were scanned and analyzed with ImageQuant 5.2 software (Amersham) for quantification. Where indicated, blots were stripped and re-probed with the corresponding antibody. Values were normalized to β-actin or the corresponding kinase as indicated.
Experiments were conducted during development of embodiments of the present invention to confirm the effect of ONOO^− by measuring 3NO2-tyrosine protein derivative formation. CD4+ T cells from a healthy donor were treated with increasing ONOO— concentrations then stimulated with PMA. […]

The subject of assay [1] is ERK. As to the kind of experiment: PMA-stimulated ERK phosphorylation by immunoblot in CD4+ T cells. The note with it: CD4+ T cells from healthy controls, increasing ONOO− then PMA. Type of assay: cell-based, human. The procedure:
as §1, §2
This agrees with our previous results showing that PKCδ T505 phosphorylation is upstream of ERK (Gorelik, 2007; herein incorporated by reference in its entirety) and its impairment decreases ERK pathway signaling.

In assay [2] the target is T2, PKCδ (Homo sapiens, UniProt Q05655).
T2 construct: Following stimulation, whole cell lysates were obtained; endogenous in cells; host or cells: primary CD4+ T cells from healthy donors or lupus patients
T2 sequence (Q05655 whole entry): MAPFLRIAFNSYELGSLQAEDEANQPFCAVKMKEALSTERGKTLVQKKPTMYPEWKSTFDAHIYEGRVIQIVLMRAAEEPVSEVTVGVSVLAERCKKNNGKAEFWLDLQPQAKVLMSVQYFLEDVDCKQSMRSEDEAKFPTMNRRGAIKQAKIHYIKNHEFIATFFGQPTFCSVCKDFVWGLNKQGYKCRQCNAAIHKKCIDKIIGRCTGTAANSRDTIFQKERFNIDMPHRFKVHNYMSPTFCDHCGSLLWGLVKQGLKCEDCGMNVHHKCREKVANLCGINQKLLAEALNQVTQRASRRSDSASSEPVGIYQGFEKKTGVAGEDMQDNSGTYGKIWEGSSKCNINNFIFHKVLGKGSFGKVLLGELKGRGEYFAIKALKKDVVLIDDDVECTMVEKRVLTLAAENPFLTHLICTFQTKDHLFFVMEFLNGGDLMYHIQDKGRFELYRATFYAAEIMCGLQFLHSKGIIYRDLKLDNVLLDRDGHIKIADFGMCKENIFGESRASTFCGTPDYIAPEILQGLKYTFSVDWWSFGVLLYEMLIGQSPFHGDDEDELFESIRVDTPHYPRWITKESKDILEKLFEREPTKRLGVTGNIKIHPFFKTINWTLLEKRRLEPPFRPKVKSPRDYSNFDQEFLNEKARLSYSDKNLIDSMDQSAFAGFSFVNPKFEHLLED
Description: PKCδ nitration: anti-nitrotyrosine immunoprecipitation and immunoblot of CD4+ T cell lysates. Type of assay: cell-based. The note with it: control T cells treated with ONOO−. The procedure:
Immunoprecipitations were performed according to the manufacturer's instructions. Lysates from normal or lupus T cells were incubated with the agarose-conjugated anti-nitrotyrosine antibody overnight at 4° C. Following centrifugation an aliquot of the supernatant (containing non-nitrated proteins) and the beads were resuspended in Laemmli sample buffer and boiled for 5 min. Proteins from each fraction were then analyzed in parallel by SDS-PAGE and immunoblot analysis.
Experiments were conducted during development of embodiments of the present invention to determine whether PKCδ is inactivated in T cells from patients with active lupus through nitration, similar to ONOO treated T cells. CD4+ T cells from 6 lupus patients with active disease (SLEDAI≧4) were stimulated with PMA and nitrated proteins immunoprecipitated from the lysates with anti-3NO2-Tyr antibodies. […] Total and T505 phosphorylated PKCδ content were then compared by immunoblotting.
Nitrated and non-nitrated PKCδ were analyzed as the total PKCδ content in the precipitate and supernatant respectively. The levels of total PKCδ (supernatant+immunoprecipitate) were similar in untreated or ONOO^− treated T cells from control donors and lupus patients (FIGS. 5 A and B). […]

In assay [3] the target is T2, PKCδ. As to the kind of experiment: PKCδ phosphorylation (p-T505, p-Y311) by immunoblot in PMA-stimulated CD4+ T cells. In kind it is cell-based. The procedure: Peripheral blood mononuclear cells were isolated from healthy donors or SLE patients by Ficoll-Hypaque density gradient centrifugation. CD4+ T cells were then purified by negative selection using magnetic beads (CD4+ T cell isolation kit; Miltenyi Biotec, Auburn, Calif.) as previously reported (Gorelik, 2007; herein incorporated by reference in its entirety).
as §1, §2
Experiments were performed during development of embodiments of the present invention to determine if ONOO^− causes the PKCδ T^505 phosphorylation defect observed in lupus T cells. CD4+ T cells from healthy subjects were treated with increasing concentrations of ONOO^− then stimulated with PMA.
The phosphorylation of Y^311 in the PKCδ molecule was also examined, because this amino acid is phosphorylated in cells undergoing oxidative stress (Steinberg, 2004; Kikkawa, 2002; herein incorporated by reference in their entireties). […] It is important to note that p-Y^311 is almost undetectable in resting CD4+ T cells (not shown) similar to p-T^505. […] While PMA promotes phosphorylation on T^505, Y^311 is almost insensitive. In contrast, ONOO^− increases Y311 phosphorylation with a concomitant decrease in p-T^505.

The test system of assay [4] is dnPKCδ/CD2rtTA mice. Description: Serum IgG anti-dsDNA antibodies by ELISA in double transgenic mice given dox. The note with it: dox in drinking water, serially over time, versus sucrose controls. In kind it is in vivo, mouse. Here is the method: Serum anti-dsDNA IgG antibodies were measured by ELISA. Microtiter plates (Costar, Corning, N.Y.) were coated overnight at 4° C. with 10 μg plasmid dsDNA, then 5 μL of mouse sera were added to each well in 100 μl of buffer and incubated overnight at 4° C. Bound anti-dsDNA antibody was detected by chemiluminescence using HRP-goat anti-mouse IgG (Bethyl Lab Inc) at 450 nm in a spectrophotometer equipped with Softmax Pro software (Molecular Devices, Sunnyvale, Calif.). Murine monoclonal anti-dsDNA antibody (Chemicon) was used for the standard curve.
Experiments were conducted during the development of embodiments of the present invention to determine if the double transgenic develop anti-dsDNA antibodies when given dox. The double transgenic mice were given sucrose or sucrose plus dox in their drinking water, and IgG anti-dsDNA antibodies were measured serially over time by ELISA.

In another assay the test system is CD70. Description: CD70 mRNA in CD3+ T cells of dnPKCδ/CD2-rtTA mice with and without dox. In kind it is in vivo, mouse. The note with it: dox 2 weeks, relative to controls. The procedure:
(§3) Double transgenic mice were generated and maintained in a specific pathogen-free environment. All protocols were approved by the University of Michigan Committee on the Use and Care of Animals (UCUCA). Pups were weaned at 20 days of age and genotyped for the presence of both genes by PCR. Transgene expression was induced by giving 2 mg/ml of dox in the drinking water and supplemented with 5% of sucrose. Double transgenic control animals were given 5% sucrose alone. All the double transgenic mice were developmentally normal. Protein and blood in mouse urine was measured using Chemstrip 6 dipsticks (Roche, Madison, Wis.).
(§4) 150 ng of RNA was converted to cDNA and amplified in one step using a Quanti-Tect SYBR Green RT-PCR kit (Qiagen). CD70 transcripts were quantitated by real-time RT-PCR using a Rotor-Gene 3000 (Corbett Research, Sydney, Australia) and previously published protocols (Gorelik, 2007; herein incorporated by reference in its entirety). The amplification conditions were: 30 min at 50° C., 15 min at 95° C., 40 cycles of 15s at 94° C., 20s at 56° C. and 30s at 72° C. followed by a final extension at 72° for 5 min. Transcript expression levels were normalized to GAPDH. […]

In assay [5] the test system is ERK. Description: ERK phosphorylation in CD3+ splenic T cells of dnPKCδ/CD2-rtTA mice receiving dox. The note with it: dox in drinking water two weeks, relative to sucrose controls. Type of assay: in vivo, mouse. The procedure: as §3
20 μg of protein was diluted in Laemmli loading buffer and denatured by boiling for 5 min followed by electrophoresis in 10-12% SDS-polyacrylamide gels. The fractionated proteins were then electrophoretically transferred to nitrocellulose membranes (Schleicher and Schuell, Keene, N.H.) and stained with Ponceau S (Sigma) to verify equal loading. Membranes were blocked for 1 h in Tris-buffered saline (TBS) containing 0.1% Tween (Sigma) and 5% nonfat dry milk (Bio-Rad). […] For quantitative studies, the bands on X-ray films were scanned and analyzed with ImageQuant 5.2 software (Amersham). […]

In the next assay the test system is Dnmt1. Description: Dnmt1 mRNA by real time RT-PCR in spleens of double transgenic mice given dox. Type of assay: in vivo, mouse. The note with it: dox plus sucrose 2 weeks, spleen RNA. The procedure:
as §3, §4
Double transgenic mice were given dox plus sucrose or sucrose alone for 2 weeks. The mice were then sacrificed, RNA isolated from their spleens, then Dnmt1 mRNA levels were measured by real time RT-PCR. […]

Assay [6] relates to dnPKCδ/CD2rtTA mice. Description: Kidney histopathology in double transgenic dnPKCδ/CD2rtTA mice given Doxy. In kind it is in vivo, mouse. The note with it: double transgenic dnPKCδ/CD2rtTA mice pretreated with Doxy. Here is the method: Double transgenic dnPKCδ/CD2rtTA mice were given 4 mg/ml dox/5% sucrose in their drinking water for 20 wks. Double transgenic animals treated with 5% sucrose were used as controls. At indicated times, their kidneys and lungs were removed. Kidneys were divided in two, one half embedded in O.C.T. (Thermo Fisher) and frozen in liquid nitrogen while the other half and the lung were fixed in 10% formalin, paraffin embedded and stained with hematoxylin and eosin. Five micron sections were cut from the frozen tissue and fixed for 10 minutes in ice cold acetone. 10% horse serum/PBS was used to block non-specific sites and the sections were stained with a 1:50 dilution of biotin-Goat anti-mouse IgG (Fc specific) antibody (US Biologicals)/FITC-Streptavidin (BD Pharmingen) to detect IgG depositions.
Immunohistochemical staining noted IgG deposition along capillary walls and in the mesangial region of glomeruli from transgenic animals pretreated with Doxy (FIG. 11). It was also observed perivascular infiltration of leukocytes in glomeruli (FIG. 12), lungs (FIG. 13) and liver of transgenic animals pretreated with Doxy.

Setting [7] is: PMA stimulation, untreated (0 μM ONOO−) CD4+ T cells.

T1 sequence (Q04759 whole entry): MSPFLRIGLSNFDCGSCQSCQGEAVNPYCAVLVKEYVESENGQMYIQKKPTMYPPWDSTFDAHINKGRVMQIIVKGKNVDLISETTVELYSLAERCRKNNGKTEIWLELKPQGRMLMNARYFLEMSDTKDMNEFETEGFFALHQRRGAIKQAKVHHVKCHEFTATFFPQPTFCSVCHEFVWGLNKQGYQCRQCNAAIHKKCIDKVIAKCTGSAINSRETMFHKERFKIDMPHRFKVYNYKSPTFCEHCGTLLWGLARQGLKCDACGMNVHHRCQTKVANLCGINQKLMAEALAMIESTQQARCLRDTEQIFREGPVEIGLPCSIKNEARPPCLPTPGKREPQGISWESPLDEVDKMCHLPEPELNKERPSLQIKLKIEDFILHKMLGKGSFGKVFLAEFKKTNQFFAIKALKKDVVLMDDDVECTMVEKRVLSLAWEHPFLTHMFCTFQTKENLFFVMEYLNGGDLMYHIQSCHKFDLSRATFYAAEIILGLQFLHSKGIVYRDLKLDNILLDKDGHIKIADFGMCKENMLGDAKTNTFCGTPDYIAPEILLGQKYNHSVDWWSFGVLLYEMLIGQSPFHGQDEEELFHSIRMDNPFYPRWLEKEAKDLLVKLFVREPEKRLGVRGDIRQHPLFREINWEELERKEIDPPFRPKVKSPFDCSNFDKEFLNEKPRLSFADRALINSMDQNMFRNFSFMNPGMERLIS

In the case of `O=NOO` [ONOO^−, peroxynitrite], the “PKC θ activation loop phosphorylation” value on PKCθ was “not appreciably affected”. In addition, the “PKC α activation loop phosphorylation” value with PKCα is “not appreciably affected”. Also, in the assay on 3-nitrotyrosine proteins, the 3-nitrotyrosine derivative formation entry was “concentration-dependent increase”. In the assay with ERK [1], the “PMA-stimulated ERK phosphorylation” value is “declines”. On PKCδ [2], the “nitrated PKCδ fraction T505 phosphorylated after PMA stimulation” value was found to be 6%. Besides, the PKCδ nitrated at PKCδ [2] (PMA stimulated) stood at 74%. For the same compound, the “PKCδ T505 phosphorylation” value on PKCδ [3] (CD4+ T cells from healthy subjects, increasing ONOO− (20-80 μM, 15 min) then PMA) is given as “concentration dependent decrease”. Also, at PKCδ [3] (PMA stimulated CD4+ T cells, increasing ONOO−), the “PKCδ Y311 phosphorylation” value is listed as “concentration-dependent increase”.

Take `CCCCCCCCCCCCCC(=O)O[C@@H]1[C@@H](C)[C@@]2(O)[C@@H](C=C(CO)C[C@]3(O)C(=O)C(C)=C[C@@H]23)[C@@H]2C(C)(C)[C@]12OC(C)=O` [PMA]: at PKCδ [3] (setting [7]), the “PKCδ T505 phosphorylation” value is reported as “substantial increase” and the “PKCδ Y311 phosphorylation” value is “no appreciable effect”.

As to `C[C@H]1c2cccc(O)c2C(O)=C2C(=O)[C@]3(O)C(O)=C(C(N)=O)C(=O)[C@@H](N(C)C)[C@@H]3[C@@H](O)[C@@H]21` [dox, doxycycline], the “IgG anti-dsDNA antibodies” value with dnPKCδ/CD2rtTA mice [4] is on record as “significantly higher levels”. For the same compound, the “CD70 mRNA expression” value in the assay with CD70 is “significantly increased”. The “ERK phosphorylation following PMA stimulation” value with ERK [5] was “Reduced”. For the same compound, in the assay with Dnmt1, the “decrease in Dnmt1 transcripts” value was “approximately 45%”. In the assay with dnPKCδ/CD2rtTA mice [6], the kidney histology result was “evidence of glomerulonephritis”.
